Measured values taken from ChEMBL document CHEMBL1201862, “PubChem BioAssay data set” (2004).
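Grown in 96-well plates, cells were treated for 48 hours with each compound at five concentrations. Insufficient inhibition: endpoint recorded as highest concentration tested. At the GI50, growth is halved.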 Active and inactive are the calls of the source. No stated cut-off is given here; in the data, active = GI50 up to about 1.1 µM and inactive = higher.

Columns and labels:
Assay in all cases: inhibition of tumour cell growth, NCI panel, 48 h
NCI-H226 = system: NCI-H226
ACHN = system: ACHN
TK-10 = system: TK-10
NCI/ADR-RES = system: NCI/ADR-RES
KM12 = system: KM12
SK-MEL-5 = system: SK-MEL-5
CAKI-1 = system: CAKI-1
M14 = system: M14
SNB-75 = system: SNB-75
SK-OV-3 = system: SK-OV-3
UACC-257 = system: UACC-257
HCT-116 = system: HCT-116
RXF 393 = system: RXF 393
SF-539 = system: SF-539
UO-31 = system: UO-31
Hs-578T = system: Hs-578T
Malme-3M = system: Malme-3M
RPMI-8226 = system: RPMI-8226
SR = system: SR

| Structure (SMILES) | GI50 (NCI-H226) | GI50 (ACHN) | GI50 (TK-10) | GI50 (NCI/ADR-RES) | GI50 (KM12) | GI50 (SK-MEL-5) | GI50 (CAKI-1) | GI50 (M14) | GI50 (SNB-75) | GI50 (SK-OV-3) | GI50 (UACC-257) | GI50 (HCT-116) | GI50 (RXF 393) | GI50 (SF-539) | GI50 (UO-31) | GI50 (Hs-578T) | GI50 (Malme-3M) | GI50 (RPMI-8226) | GI50 (SR) |
| --- | --- | --- | --- | --- | --- | --- | --- | --- | --- | --- | --- | --- | --- | --- | --- | --- | --- | --- | --- |
| Cc1ccc2c(c1)[nH]c(=S)n2C=C(C(N)=O)C(N)=O | > 100 µM (inactive) | > 100 µM (inactive) | > 100 µM (inactive) | > 100 µM (inactive) | > 100 µM (inactive) | > 100 µM (inactive) | > 100 µM (inactive) | > 100 µM (inactive) | > 100 µM (inactive) | > 100 µM (inactive) | > 100 µM (inactive) | > 100 µM (inactive) | > 100 µM (inactive) | > 100 µM (inactive) | > 100 µM (inactive) | – | – | – | – |
| CCCCCCCCCCCCCCCCCCNc1ccn(C2OC(CO)C(OP(=O)(O)OCC3CCC(n4ccc(N)nc4=O)O3)C2O)c(=O)n1 (configuration not stated) | > 100 µM (inactive) | > 100 µM (inactive) | 42.1 µM (inactive) | > 100 µM (inactive) | 36.3 µM (inactive) | > 100 µM (inactive) | > 100 µM (inactive) | 42.3 µM (inactive) | 62.2 µM (inactive) | > 100 µM (inactive) | > 100 µM (inactive) | 66.5 µM (inactive) | 15.6 µM (inactive) | 32.7 µM (inactive) | 22.2 µM (inactive) | > 100 µM (inactive) | 21.1 µM (inactive) | – | – |
| Cc1ccc(-c2c(C#N)c(-c3ccccc3)n(NS(=O)(=O)c3ccccc3)c(=O)c2C#N)cc1 | > 100 µM (inactive) | > 100 µM (inactive) | > 100 µM (inactive) | 63.5 µM (inactive) | 89.3 µM (inactive) | 34.6 µM (inactive) | > 100 µM (inactive) | 93.3 µM (inactive) | 67.6 µM (inactive) | > 100 µM (inactive) | > 100 µM (inactive) | 74.5 µM (inactive) | 63.4 µM (inactive) | 87.1 µM (inactive) | – | – | 61.5 µM (inactive) | 19.6 µM (inactive) | – |
| Cc1cc(C)c2c(c1)C/C(=C\c1cccc(C)c1C(=O)O)C2=O | 44.2 µM (inactive) | 87.7 µM (inactive) | > 100 µM (inactive) | – | 51.6 µM (inactive) | 34.7 µM (inactive) | > 100 µM (inactive) | 88.9 µM (inactive) | 55 µM (inactive) | – | 33.3 µM (inactive) | 45.9 µM (inactive) | 72.9 µM (inactive) | 37.2 µM (inactive) | 39.6 µM (inactive) | – | 58.1 µM (inactive) | 68.5 µM (inactive) | > 100 µM (inactive) |
| O=C1C=C/C(=N\N=C(c2ccccc2)c2ccccc2)O1 | – | – | > 10 µM (inactive) | – | > 10 µM (inactive) | > 10 µM (inactive) | > 10 µM (inactive) | > 10 µM (inactive) | > 10 µM (inactive) | > 10 µM (inactive) | > 10 µM (inactive) | – | > 10 µM (inactive) | – | – | – | > 10 µM (inactive) | > 10 µM (inactive) | > 10 µM (inactive) |
| CSc1[nH]nc(N)c1C(=O)Nc1ccc(C)cc1 | > 100 µM (inactive) | 55.2 µM (inactive) | 43 µM (inactive) | – | – | 31 µM (inactive) | 40.1 µM (inactive) | 83.9 µM (inactive) | – | > 100 µM (inactive) | 62.4 µM (inactive) | 75.2 µM (inactive) | 97.9 µM (inactive) | > 100 µM (inactive) | 36.9 µM (inactive) | > 100 µM (inactive) | 89.1 µM (inactive) | 51.3 µM (inactive) | 30.6 µM (inactive) |
| COC(=O)[C@H]1CC(=O)C=C2CCCC21 (some centres not stated) | – | – | > 100 µM (inactive) | – | > 100 µM (inactive) | > 100 µM (inactive) | > 100 µM (inactive) | > 100 µM (inactive) | > 100 µM (inactive) | > 100 µM (inactive) | > 100 µM (inactive) | > 100 µM (inactive) | > 100 µM (inactive) | > 100 µM (inactive) | > 100 µM (inactive) | – | > 100 µM (inactive) | > 100 µM (inactive) | – |
| O=c1ccc2ccc(O)c3c4c(O)ccc5ccc(=O)c(c1c23)c54 | 2.04 µM (inactive) | 2.69 µM (inactive) | 2.67 µM (inactive) | – | 1.24 µM (inactive) | 1.14 µM (inactive) | – | 1.6 µM (inactive) | – | 4.02 µM (inactive) | 1.49 µM (inactive) | 1.43 µM (inactive) | 1.17 µM (inactive) | 1.69 µM (inactive) | 1.65 µM (inactive) | – | 0.371 µM (active) | 2.9 µM (inactive) | – |
| O=C(OCC(Cl)(Cl)Cl)N1CC[C@H](C2CCCCC2)C1 | – | 19.3 µM (inactive) | 18.8 µM (inactive) | 15 µM (inactive) | 17.3 µM (inactive) | 14.9 µM (inactive) | 31.6 µM (inactive) | 20.7 µM (inactive) | 20.8 µM (inactive) | 15.6 µM (inactive) | 19.1 µM (inactive) | 14.6 µM (inactive) | 19.5 µM (inactive) | – | 17.6 µM (inactive) | – | – | – | 16.3 µM (inactive) |
| COc1nc2c(c(=O)n1C)N=C(c1ccccc1)[C@H](C(CC(=O)c1ccccc1)c1ccccc1)C(c1ccccc1)N2 (some centres not stated) | 69.2 µM (inactive) | 50.4 µM (inactive) | – | 39.6 µM (inactive) | 30.8 µM (inactive) | 60.8 µM (inactive) | 27 µM (inactive) | > 100 µM (inactive) | 10 µM (inactive) | > 100 µM (inactive) | > 100 µM (inactive) | 88.1 µM (inactive) | 28.5 µM (inactive) | > 100 µM (inactive) | 38.2 µM (inactive) | – | – | 36.7 µM (inactive) | 78 µM (inactive) |
| COC(=O)C1(C)C=C(Nc2ccccc2)C(=O)N1c1ccccc1 (configuration not stated) | > 100 µM (inactive) | > 100 µM (inactive) | > 100 µM (inactive) | – | > 100 µM (inactive) | > 100 µM (inactive) | > 100 µM (inactive) | > 100 µM (inactive) | – | > 100 µM (inactive) | > 100 µM (inactive) | > 100 µM (inactive) | > 100 µM (inactive) | > 100 µM (inactive) | 58.3 µM (inactive) | – | > 100 µM (inactive) | > 100 µM (inactive) | – |
| CC(C)(C)NC1C2CCC(C)(C1O)C2(C)C (configuration not stated) | – | 8.63 µM (inactive) | > 100 µM (inactive) | > 100 µM (inactive) | > 100 µM (inactive) | > 100 µM (inactive) | > 100 µM (inactive) | > 100 µM (inactive) | 0.021 µM (active) | > 100 µM (inactive) | > 100 µM (inactive) | > 100 µM (inactive) | > 100 µM (inactive) | > 100 µM (inactive) | > 100 µM (inactive) | – | > 100 µM (inactive) | > 100 µM (inactive) | > 100 µM (inactive) |
| ClCCCC1COc2ccccc2O1 (configuration not stated) | > 100 µM (inactive) | > 100 µM (inactive) | > 100 µM (inactive) | > 100 µM (inactive) | – | > 100 µM (inactive) | > 100 µM (inactive) | > 100 µM (inactive) | > 100 µM (inactive) | 8.81 µM (inactive) | > 100 µM (inactive) | 45.7 µM (inactive) | > 100 µM (inactive) | > 100 µM (inactive) | > 100 µM (inactive) | – | > 100 µM (inactive) | – | > 100 µM (inactive) |
| O=C1CC(NC(=O)C(F)(F)F)c2c(Br)sc(N3CCNCC3)c21 (configuration not stated) | > 100 µM (inactive) | > 100 µM (inactive) | > 100 µM (inactive) | > 100 µM (inactive) | > 100 µM (inactive) | > 100 µM (inactive) | > 100 µM (inactive) | > 100 µM (inactive) | > 100 µM (inactive) | > 100 µM (inactive) | > 100 µM (inactive) | > 100 µM (inactive) | > 100 µM (inactive) | > 100 µM (inactive) | 61.4 µM (inactive) | > 100 µM (inactive) | > 100 µM (inactive) | – | – |
| COc1cc(CNC2=NCCC2)cc(OC)c1OC | > 100 µM (inactive) | > 100 µM (inactive) | > 100 µM (inactive) | > 100 µM (inactive) | > 10 µM (inactive) | > 100 µM (inactive) | > 100 µM (inactive) | > 100 µM (inactive) | > 100 µM (inactive) | > 100 µM (inactive) | > 100 µM (inactive) | 39.6 µM (inactive) | > 100 µM (inactive) | > 100 µM (inactive) | > 100 µM (inactive) | – | > 100 µM (inactive) | – | – |
| CS/C(=N/S(=O)(=O)c1ccc(Cl)cc1)NCCCN/C(=N\S(=O)(=O)c1ccc(Cl)cc1)SC | – | 12.1 µM (inactive) | 14.5 µM (inactive) | 12.9 µM (inactive) | – | – | 23.3 µM (inactive) | 15.4 µM (inactive) | 15.8 µM (inactive) | 31.1 µM (inactive) | 6.15 µM (inactive) | 21.6 µM (inactive) | – | 64 µM (inactive) | 13 µM (inactive) | – | 15.7 µM (inactive) | 13.7 µM (inactive) | 4.34 µM (inactive) |
| CCN(CC)CCC1CCCCN1CC(=O)N1c2cc(Cl)ccc2NC(=O)CC1C (configuration not stated) | > 100 µM (inactive) | > 100 µM (inactive) | > 100 µM (inactive) | – | > 100 µM (inactive) | > 100 µM (inactive) | > 100 µM (inactive) | > 100 µM (inactive) | – | > 100 µM (inactive) | – | > 100 µM (inactive) | > 100 µM (inactive) | > 100 µM (inactive) | > 100 µM (inactive) | > 100 µM (inactive) | > 100 µM (inactive) | > 100 µM (inactive) | – |
| Oc1ccc2c(c1)CC[N+]1=C2CCC2CCCC21 (configuration not stated) [QUINDONIUM BROMIDE] | > 100 µM (inactive) | > 100 µM (inactive) | > 100 µM (inactive) | – | – | > 100 µM (inactive) | > 100 µM (inactive) | > 100 µM (inactive) | > 100 µM (inactive) | > 100 µM (inactive) | – | > 100 µM (inactive) | > 100 µM (inactive) | > 100 µM (inactive) | > 100 µM (inactive) | – | – | – | – |
